# Assay results reported in patent publication EP0004516A2, “Pharmaceutical compositions active on the gastro-intestinal motricity” (SCIENCE UNION ET Cie SOCIETE FRANCAISE DE RECHERCHE MEDICALE, priority 1978, dated 1979).
# How the values were obtained:
# [1] = tested on: troubles moteurs gastro-duodénaux (dyspepsie hyposthénique en rapport avec un état dépressif psychasthénique); experiment: Double-blind cross-over clinical and external digestive electromyographic study versus placebo (Exemple IV); assay type: in vivo, humaine
# Procedure: Effet normalisateur des compositions à base d'acide 7-[(3-chloro 6-methyl 5,5-dioxo 6,11-dihydrodibenzo (c,f) thiazepin 1,2-11-yl) amino] heptanoique sur les troubles moteurs gastro-duodénaux en clinique humaine.
# Evaluer l'efficacité du principe actif dans trois posologies différentes : • .
# Les malades ont été divisés en deux groupes de 12 sujets • . Un 1er groupe de 12 cas a reçu successivement et en cross- over 1 comprimé par jour de 12,5mg et de 25mg de PA. (Un malade de ce groupe a abandonné le traitement) • . Un 2ème groupe de 12 cas a reçu successivement et en cross- over 2 comprimés par jour, soit 2 x 12.
# Chaque sujet avait au minimum : • 1. Un syndrome dyspeptique hyposténique, avec • - ballonnements • - pesanteur • - somnolence post-prandiale • - brûlures et / ou douleurs épigastriques • - états nauséeux • 2. Ln état dépressif psycnasténique, avec • - dépression • - inhibition psycho-motrice • - asthénie • - anxiété psychique et / ou somatisée • - troubles du sommeil (difficulté à l'endormissement ou réveil précoce) • 3. Un électromyogramme digestif externe pathologique, avec un retard d'apparition des ondes gastriques après le repas (d'au moins 2 heures).
# • . Selon la gravité clinique, de 0 à 3 • . Pour l'électromyogramme digestif, chez un sujet normal, les ondes gastriques apparaissent dès l'ingestion d'un repas équilibré et persistent pendant 5 heures en moyenne. Cette situation était côtée 0.
# Chez le dyspeptique hyposténique, il existe une absence d'ondes gastriques dans la phase post-prandiale, qui peut durer plus de 3 heures. Cette situation était côtée 2.
# Si, après le traitement, la sidération diminuait, elle était côtée 1.
# L'examen clinique était répété après chaque passage du produit actif, ou de placebc, soit 5 fois par milade.
# En ce qui concerne les tracés EMG, nous avions prévu quatre enregistrements par sujet : avant traitement, après chaque passage de Principe Actif, et après le dernier passage Placebo.
# [2] = tested on: musculature lisse tube digestif; experiment: Pharmacological studies: antispasmodic action and restoration of digestive smooth muscle motility
# fibre lisse = experiment: Anti-serotonin action shown directly on smooth fibre
# [3] = tested on: ulcère produit par la contrainte; experiment: Restraint ulcer protection; assay type: in vivo, animal
# [4] = 1 x 25 mg/jour, 15 jours, Groupe I, 11 cas
# [5] = 1 x 12,5 mg/jour, 15 jours, Groupe I, 11 cas
# [6] = 2 x 25mg/jour, 15 jours, Groupe II, 12 cas
# [7] = 2 x 12,5mg/jour, 15 jours, Groupe II, 12 cas
structure (smiles),measurement,setting,value
"CN1c2ccccc2C(NCCCCCCC(=O)O)c2ccc(Cl)cc2S1(=O)=O (racemic) [principe actif, acide 7-[(3-chloro 6-méthyl 5,5-dioxo 6,11-dihydrodibenzo (c,f)thiazepin 1,2-11-yl)amino] heptanoique]",absence d'effet,[1]; [4],"18,2%"
same,très bon effet thérapeutique global,[1]; [4],"81,8%"
same,activité moyenne,[1]; [5],"54,6%"
same,"bonne activité (très nette amélioration de l'ensemble des symptômes digestifs, psychiques, ainsi que des tracés EMG externes)",[1]; [5],"45,4%"
same,activité bonne,[1]; [6],"83,3%"
same,activité moyenne,[1]; [6],"16,6%"
same,Bon effet thérapeutique global,[1]; [7],"66,6%"
same,effet moyen,[1]; [7],"33,3%"
same,activité globale par rapport au placebo,"[1]; 12,5mg, 25mg et 50mg, both groups",toujours été nettement supérieur au placebo
same,action antispasmodique,[2],importante
same,restauration de la motricité (atonie de la musculature lisse),[2],capables de restaurer une motricité constante et bien coordonnée
same,action anti sérotonine,fibre lisse,très importante
same,effet anti-secrétoire,[3]; accompanying the protective effect,ne s'accompagne pas d'effet anti-secrétoire
same,protection contre l'ulcère produit par la contrainte,[3]; in vivo,protégeait l'animal contre l'ulcère produit par la contrainte
